Source: ChEMBL document CHEMBL3817840, “Discovery of CNS Penetrant CXCR2 Antagonists for the Potential Treatment of CNS Demyelinating Disorders” (ACS Med Chem Lett, 2016)
The source made the active and inactive calls. The calls are words filed in the database; no cut-off is given here.

Legend:
[1] = target: T1, C-X-C chemokine receptor type 2 (Homo sapiens, UniProt P25025); assay: Antagonist activity at human recombinant Gal4-VP16 fused-CXCR2 assessed as inhibition of CXCL1-mediated lactamase reporter gene expression after overnight incubation
T1 sequence (P25025 whole entry): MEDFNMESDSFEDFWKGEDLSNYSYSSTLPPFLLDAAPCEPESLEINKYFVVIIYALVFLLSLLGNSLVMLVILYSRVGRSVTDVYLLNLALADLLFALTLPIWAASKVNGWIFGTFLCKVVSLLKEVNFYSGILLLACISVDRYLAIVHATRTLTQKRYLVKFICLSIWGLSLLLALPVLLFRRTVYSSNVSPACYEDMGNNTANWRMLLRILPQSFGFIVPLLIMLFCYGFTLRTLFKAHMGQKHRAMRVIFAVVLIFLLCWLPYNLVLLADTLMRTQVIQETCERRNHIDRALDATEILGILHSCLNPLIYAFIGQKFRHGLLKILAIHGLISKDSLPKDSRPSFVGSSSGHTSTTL

[2] = AUC (0 to 4 hrs) in C57BL/6 mouse blood at 3.4 mg/kg, po by UPLC/MS/MS analysis; assay type: ADME, organism-based; parameters: time < 4 hr, dose 3.4 mg/kg, route oral
[3] = tested on: Brain; assay: AUC (0 to 4 hrs) in C57BL/6 mouse brain at 3.4 mg/kg, po by UPLC/MS/MS analysis; assay type: ADME, organism-based; parameters: dose 3.4 mg/kg, time < 4 hr, route oral; details: in vivo
[4] = Ratio of drug level in C57BL/6 mouse brain to blood at 3.4 mg/kg, po; assay type: ADME, organism-based
[5] = (§1) AUC (0 to 4 hrs) in C57BL/6 mouse blood at 2 mg/kg, ip by UPLC/MS/MS analysis; assay type: ADME, organism-based; parameters: dose 2 mg/kg, time < 4 hr, route intraperitoneal; details: C57BL/6, mouse, blood
[6] = tested on: Brain; assay: AUC (0 to 4 hrs) in C57BL/6 mouse brain at 2 mg/kg, ip by UPLC/MS/MS analysis; assay type: ADME, organism-based; parameters: dose 2 mg/kg, time < 4 hr, route intraperitoneal; details: in vivo
[7] = Ratio of drug level in C57BL/6 mouse brain to blood at 2 mg/kg, ip; assay type: ADME, organism-based; details: for Kp: C57BL/6, mouse, brain/blood; for Ratio: mouse, brain, BLD = below limit of detection
[8] = Half life in C57BL/6 mouse at 1 mg/kg, iv; assay type: ADME, organism-based; details: in vivo
[9] = Clearance in C57BL/6 mouse blood at 1 mg/kg, iv; assay type: ADME, organism-based
[10] = Volume of distribution at steady state in C57BL/6 mouse at 1 mg/kg, iv; assay type: ADME, organism-based; details: in vivo, read-out: Vdss
[11] = Cmax in C57BL/6 mouse at 2 mg/kg, po; assay type: ADME, organism-based; parameters: dose 2 mg/kg, route oral; details: in vivo
[12] = tested on: Mus musculus; assay: Dose normalized AUC (0 to infinity) in C57BL/6 mouse at 2 mg/kg, po; assay type: ADME, organism-based; details: in vivo
[13] = Oral bioavailability in C57BL/6 mouse at 2 mg/kg; assay type: ADME, organism-based; details: in vivo
[14] = Fraction unbound in human plasma; assay type: ADME, cell-free
[15] = Stability of the compound assessed as GSH conjugate formation; assay type: physicochemical
[16] = tested on: Mus musculus; assay: Induction of remyelination in corpus callosum in cuprizone-induced C57BL/6 mouse demyelination model at 100 mg/kg, po bid for 9 consecutive days by black-gold myelin staining based microscopy; assay type: functional, organism-based
[17] = target: T2, Cytochrome P450 1A2 (Homo sapiens, UniProt P05177); assay: Inhibition of CYP1A2 (unknown origin); assay type: ADME
T2 sequence (P05177 whole entry): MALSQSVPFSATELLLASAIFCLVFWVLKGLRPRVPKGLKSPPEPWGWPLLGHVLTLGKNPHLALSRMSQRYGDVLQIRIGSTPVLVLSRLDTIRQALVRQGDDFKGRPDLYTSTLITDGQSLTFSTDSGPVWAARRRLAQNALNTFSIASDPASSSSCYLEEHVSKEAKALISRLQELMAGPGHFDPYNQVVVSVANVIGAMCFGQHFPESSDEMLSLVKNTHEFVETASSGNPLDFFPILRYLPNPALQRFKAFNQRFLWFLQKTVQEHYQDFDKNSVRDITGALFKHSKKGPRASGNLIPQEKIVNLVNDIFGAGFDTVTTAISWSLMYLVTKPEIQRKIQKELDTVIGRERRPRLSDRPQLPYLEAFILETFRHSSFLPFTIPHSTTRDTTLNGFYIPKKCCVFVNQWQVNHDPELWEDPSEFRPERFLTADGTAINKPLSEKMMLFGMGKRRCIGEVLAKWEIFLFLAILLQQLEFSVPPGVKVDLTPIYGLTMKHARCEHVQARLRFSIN

[18] = target: Cytochrome P450 2C19 (Homo sapiens, UniProt P33261); assay: Inhibition of CYP2C19 (unknown origin); assay type: ADME
Sequence of Cytochrome P450 2C19 (P33261 whole entry): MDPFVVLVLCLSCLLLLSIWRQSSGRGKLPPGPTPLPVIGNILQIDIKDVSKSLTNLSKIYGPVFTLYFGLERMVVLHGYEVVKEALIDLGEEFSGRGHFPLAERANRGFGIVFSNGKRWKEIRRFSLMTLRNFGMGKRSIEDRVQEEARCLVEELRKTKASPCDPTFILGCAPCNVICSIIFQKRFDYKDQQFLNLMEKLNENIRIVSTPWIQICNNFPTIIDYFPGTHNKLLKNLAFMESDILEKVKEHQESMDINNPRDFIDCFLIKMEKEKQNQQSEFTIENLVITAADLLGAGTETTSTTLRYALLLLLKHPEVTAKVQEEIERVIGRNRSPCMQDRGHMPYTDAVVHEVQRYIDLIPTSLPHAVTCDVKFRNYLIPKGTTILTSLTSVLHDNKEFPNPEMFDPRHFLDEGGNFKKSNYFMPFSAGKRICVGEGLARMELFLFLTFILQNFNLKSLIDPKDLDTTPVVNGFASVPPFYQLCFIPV

[19] = target: Cytochrome P450 3A4 (Homo sapiens, UniProt P08684); assay: Inhibition of CYP3A4 (unknown origin); assay type: ADME
Sequence of Cytochrome P450 3A4 (P08684 whole entry): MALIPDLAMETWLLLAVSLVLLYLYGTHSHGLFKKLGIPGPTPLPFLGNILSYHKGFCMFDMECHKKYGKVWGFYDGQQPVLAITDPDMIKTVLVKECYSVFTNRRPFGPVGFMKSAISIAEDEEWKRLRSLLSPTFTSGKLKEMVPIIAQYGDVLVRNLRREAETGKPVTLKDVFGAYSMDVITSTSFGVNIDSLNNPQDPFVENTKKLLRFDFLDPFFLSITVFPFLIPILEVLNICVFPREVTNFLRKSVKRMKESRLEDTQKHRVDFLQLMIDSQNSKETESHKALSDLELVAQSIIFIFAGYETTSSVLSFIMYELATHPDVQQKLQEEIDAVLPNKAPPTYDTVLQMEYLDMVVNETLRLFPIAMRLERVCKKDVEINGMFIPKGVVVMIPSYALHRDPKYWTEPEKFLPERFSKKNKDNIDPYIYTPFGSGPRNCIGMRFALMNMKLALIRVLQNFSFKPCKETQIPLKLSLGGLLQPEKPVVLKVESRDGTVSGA

[20] = target: Voltage-gated inwardly rectifying potassium channel KCNH2 (Homo sapiens, UniProt Q12809); assay: Binding affinity to human ERG
Sequence of Voltage-gated inwardly rectifying potassium channel KCNH2 (Q12809 whole entry): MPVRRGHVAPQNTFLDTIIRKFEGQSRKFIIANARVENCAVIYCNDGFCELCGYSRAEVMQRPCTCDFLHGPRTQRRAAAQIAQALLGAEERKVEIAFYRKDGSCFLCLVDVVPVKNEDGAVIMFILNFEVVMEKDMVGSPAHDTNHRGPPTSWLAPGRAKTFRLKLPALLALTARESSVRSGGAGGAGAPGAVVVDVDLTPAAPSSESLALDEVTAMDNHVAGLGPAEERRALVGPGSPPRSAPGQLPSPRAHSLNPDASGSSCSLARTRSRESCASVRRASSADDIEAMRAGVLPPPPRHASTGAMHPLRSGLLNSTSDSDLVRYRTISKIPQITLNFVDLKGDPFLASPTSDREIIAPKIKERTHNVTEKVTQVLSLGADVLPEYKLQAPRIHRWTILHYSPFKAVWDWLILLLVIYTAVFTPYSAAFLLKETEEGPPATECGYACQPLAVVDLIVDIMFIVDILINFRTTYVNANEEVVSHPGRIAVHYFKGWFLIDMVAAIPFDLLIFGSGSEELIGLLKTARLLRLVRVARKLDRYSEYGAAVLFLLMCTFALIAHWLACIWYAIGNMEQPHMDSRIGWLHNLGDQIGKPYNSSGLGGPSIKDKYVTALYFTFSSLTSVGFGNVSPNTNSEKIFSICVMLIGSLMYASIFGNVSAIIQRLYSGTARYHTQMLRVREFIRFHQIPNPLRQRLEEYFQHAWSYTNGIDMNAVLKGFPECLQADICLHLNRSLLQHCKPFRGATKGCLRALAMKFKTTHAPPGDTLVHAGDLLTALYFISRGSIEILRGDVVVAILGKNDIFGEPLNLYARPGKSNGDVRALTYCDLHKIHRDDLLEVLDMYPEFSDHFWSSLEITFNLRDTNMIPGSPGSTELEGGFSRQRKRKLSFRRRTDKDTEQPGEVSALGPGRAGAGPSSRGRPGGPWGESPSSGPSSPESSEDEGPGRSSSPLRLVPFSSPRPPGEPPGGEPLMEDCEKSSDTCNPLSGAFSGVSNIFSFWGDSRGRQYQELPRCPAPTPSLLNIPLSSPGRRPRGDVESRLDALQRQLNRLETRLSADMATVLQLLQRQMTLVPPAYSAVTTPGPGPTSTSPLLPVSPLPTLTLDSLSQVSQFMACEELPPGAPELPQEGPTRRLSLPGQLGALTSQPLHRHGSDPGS

[21] = AUC (0 to 4 hrs) in C57BL/6 mouse blood at 1.9 mg/kg, po by UPLC/MS/MS analysis; assay type: ADME, organism-based; parameters: dose 1.9 mg/kg, time < 4 hr, route oral
[22] = tested on: Brain; assay: AUC (0 to 4 hrs) in C57BL/6 mouse brain at 1.9 mg/kg, po by UPLC/MS/MS analysis; assay type: ADME, organism-based; parameters: dose 1.9 mg/kg, time < 4 hr, route oral; details: in vivo
[23] = Ratio of drug level in C57BL/6 mouse brain to blood at 1.9 mg/kg, po; assay type: ADME, organism-based
[24] = tested on: Blood; assay: as §1; assay type: ADME, organism-based; parameters: dose 2 mg/kg, time < 4 hr, route intraperitoneal; details: mouse, in vivo, 4 h, BLD = below limit of detection
[25] = target: Cytochrome P450 2D6 (Homo sapiens, UniProt P10635); assay: Inhibition of CYP2D6 (unknown origin); assay type: ADME
Sequence of Cytochrome P450 2D6 (P10635 whole entry): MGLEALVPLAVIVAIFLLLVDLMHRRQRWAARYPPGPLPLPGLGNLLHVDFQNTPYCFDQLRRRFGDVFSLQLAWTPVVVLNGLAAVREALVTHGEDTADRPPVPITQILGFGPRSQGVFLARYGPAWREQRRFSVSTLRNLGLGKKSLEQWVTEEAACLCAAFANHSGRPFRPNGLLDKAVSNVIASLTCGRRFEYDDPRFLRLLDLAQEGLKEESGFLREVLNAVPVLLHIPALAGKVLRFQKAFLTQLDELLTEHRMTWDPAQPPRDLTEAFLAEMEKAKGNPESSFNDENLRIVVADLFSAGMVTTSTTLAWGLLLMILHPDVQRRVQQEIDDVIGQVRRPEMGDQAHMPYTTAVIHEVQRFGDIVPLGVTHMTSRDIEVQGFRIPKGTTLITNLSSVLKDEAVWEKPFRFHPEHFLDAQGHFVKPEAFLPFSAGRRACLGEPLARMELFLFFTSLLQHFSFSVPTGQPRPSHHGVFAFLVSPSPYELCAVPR

[26] = target: Cytochrome P450 2C9 (Homo sapiens, UniProt P11712)
Sequence of Cytochrome P450 2C9 (P11712 whole entry): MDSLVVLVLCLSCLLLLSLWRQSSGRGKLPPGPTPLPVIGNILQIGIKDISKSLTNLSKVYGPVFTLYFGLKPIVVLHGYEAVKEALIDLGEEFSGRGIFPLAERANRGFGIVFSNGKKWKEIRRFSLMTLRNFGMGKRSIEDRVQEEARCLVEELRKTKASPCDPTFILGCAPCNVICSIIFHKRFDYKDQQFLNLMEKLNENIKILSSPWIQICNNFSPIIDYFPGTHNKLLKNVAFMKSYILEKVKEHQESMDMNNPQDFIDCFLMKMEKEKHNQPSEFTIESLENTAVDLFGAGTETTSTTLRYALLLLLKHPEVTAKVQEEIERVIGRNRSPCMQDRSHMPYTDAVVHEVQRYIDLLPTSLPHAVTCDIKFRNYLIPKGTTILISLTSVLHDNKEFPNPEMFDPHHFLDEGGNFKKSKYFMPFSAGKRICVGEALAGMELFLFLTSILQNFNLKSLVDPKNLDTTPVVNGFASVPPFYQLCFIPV
Description: Inhibition of CYP2C9 (unknown origin)

Structure (SMILES) | IC50 [1] [nM] | AUC(0-t) at 4 h [5] [ng·h/mL] | AUC [6] [ng·h/g] | Kp [7] | other results
O=C(Nc1ccc(Cl)c(S(=O)(=O)N2CCNCC2)c1O)Nc1cccc(Cl)c1Cl | 0.631 |  |  |  | AUC(0-t) at 4 h [2]: 855 ng·h/mL; AUC [3]: 143 ng·h/g; Kp [4]: 0.17
O=C(Nc1ccc(Cl)c(S(=O)(=O)C2CCOCC2)c1O)Nc1cccc(Cl)c1Cl | 0.794 | 290 | 37 | 0.13 | 
CC(C)S(=O)(=O)c1c(Cl)ccc(NC(=O)Nc2cccc(Cl)c2Cl)c1O | 0.631 | 290 | 180 | 0.62 | 
CN1CCC(S(=O)(=O)c2c(Cl)ccc(NC(=O)Nc3cccc(F)c3Cl)c2O)CC1 | 0.501 | 735 | 335 |  | half-life [8]: 2.8 h; clearance [9]: 16.9 mL/min/kg; Vd [10]: 3.17 L/kg; Cmax [11]: 157 ng/mL; AUC/dose [12]: 354 ng·h/mL/mg/kg; bioavailability [13]: 41%; Fu [14]: 0.13%; Stability [15]: Stable; Activity [16]: Active
C[C@@H]1CN(S(=O)(=O)c2c(Cl)ccc(NC(=O)Nc3cccc(F)c3Cl)c2O)C[C@H](C)O1 | 3.98 | 279 | 96 | 0.35 | 
CN1CCC(S(=O)(=O)c2c(Cl)ccc(NC(=O)Nc3cccc(Cl)c3Cl)c2O)CC1 | 1.58 | 600 | 358 |  | half-life [8]: 2 h; clearance [9]: 15.6 mL/min/kg; Vd [10]: 2.12 L/kg; Cmax [11]: 132 ng/mL; AUC/dose [12]: 299 ng·h/mL/mg/kg; bioavailability [13]: 30%; Fu [14]: 0.1%; IC50 [17]: > 10000 nM; IC50 [18]: > 10000 nM; IC50 [19]: > 10000 nM; Stability [15]: Stable; IC50 [20]: > 79400 nM
CCS(=O)(=O)c1c(Cl)ccc(NC(=O)Nc2cccc(Cl)c2Cl)c1O | 0.501 | 256 | 73.9 | 0.29 | 
CN1CC[C@H](S(=O)(=O)c2c(Cl)ccc(NC(=O)Nc3cccc(F)c3Cl)c2O)C1 | 0.501 | 432 | 136 | 0.32 | 
O=C(Nc1ccc(Cl)c(S(=O)(=O)C2CCOC2)c1O)Nc1cccc(Cl)c1Cl (centres undefined) | 0.501 | 284 | 59 | 0.21 | 
CN1CCC2(CCC(S(=O)(=O)c3c(Cl)ccc(NC(=O)Nc4cccc(F)c4Cl)c3O)CC2)CC1 | 0.398 | 1480 | 69.3 | 0.05 | 
CC(C)S(=O)(=O)c1c(Cl)ccc(NC(=O)Nc2cccc(F)c2Cl)c1O | 0.501 | 198 | 95 | 0.48 | 
NS(=O)(=O)c1c(Cl)ccc(NC(=O)Nc2cccc(Cl)c2Cl)c1O | 2 |  |  |  | AUC(0-t) at 4 h [21]: 352 ng·h/mL; AUC [22]: 49 ng·h/g; Kp [23]: 0.14
O=C(Nc1ccc(Cl)c(S(=O)(=O)C2CCCCC2)c1O)Nc1cccc(F)c1Cl | 0.316 |  |  |  | AUC [24]: BLD; AUC ([6]; BLD = below limit of detection): BLD; Ratio [7]: BLD
CN1CC[C@H](S(=O)(=O)c2c(Cl)ccc(NC(=O)Nc3cccc(Cl)c3Cl)c2O)C1 | 1.26 | 577 | 164 | 0.28 | half-life [8]: 1.9 h; clearance [9]: 15.4 mL/min/kg; Vd [10]: 1.72 L/kg; Cmax [11]: 216 ng/mL; AUC/dose [12]: 271 ng·h/mL/mg/kg; bioavailability [13]: 26%; Fu [14]: 0.021%; IC50 [17]: > 10000 nM; IC50 [25]: > 10000 nM; IC50 [18]: > 10000 nM; IC50 [19]: > 10000 nM; Stability [15]: Stable; IC50 [26]: > 10000 nM
CC(C)N1CCN(S(=O)(=O)c2c(Cl)ccc(NC(=O)Nc3cccc(F)c3Cl)c2O)CC1 | 1.58 | 52.9 | 99 | 1.87 | 
O=C(Nc1ccc(Cl)c(S(=O)(=O)C2CCNCC2)c1O)Nc1cccc(Cl)c1Cl | 2 | 904 | 29.8 | 0.03 | 
O=C(Nc1ccc(Cl)c(S(=O)(=O)C2CCCC2)c1O)Nc1cccc(F)c1Cl | 0.316 | 2.98 | 1.26 | 0.42 | 
CN1CCN(S(=O)(=O)c2c(Cl)ccc(NC(=O)Nc3cccc(Cl)c3Cl)c2O)CC1 | 0.794 | 303 | 151 | 0.5 | 
CCN1CCC(S(=O)(=O)c2c(Cl)ccc(NC(=O)Nc3cccc(F)c3Cl)c2O)CC1 | 1.26 | 684 | 244 |  | half-life [8]: 2.3 h; clearance [9]: 30.8 mL/min/kg; Vd [10]: 2.82 L/kg; Cmax [11]: 125 ng/mL; AUC/dose [12]: 212 ng·h/mL/mg/kg; bioavailability [13]: 41%; Fu [14]: 0.036%; IC50 [17]: > 10000 nM; IC50 [25]: > 10000 nM; IC50 [18]: > 10000 nM; IC50 [19]: > 10000 nM; IC50 [26]: > 10000 nM
O=C(Nc1ccc(Cl)c(C(=O)N2CCCCC2)c1O)Nc1cccc(F)c1Cl | 0.501 |  |  |  | AUC [24]: BLD; AUC ([6]; BLD = below limit of detection): BLD; Ratio [7]: BLD
CCN1CCN(S(=O)(=O)c2c(Cl)ccc(NC(=O)Nc3cccc(F)c3Cl)c2O)CC1 | 1 | 189 | 128 | 0.67 | 
CN1CCC[C@H](S(=O)(=O)c2c(Cl)ccc(NC(=O)Nc3cccc(F)c3Cl)c2O)CC1 | 0.501 | 463 | 99.1 | 0.21 | 
O=C(Nc1ccc(Cl)c(C(=O)N2CCCC2)c1O)Nc1cccc(F)c1Cl | 1 |  |  |  | AUC [24]: BLD; AUC ([6]; BLD = below limit of detection): BLD; Ratio [7]: BLD
CC(C)(C)S(=O)(=O)c1c(Cl)ccc(NC(=O)Nc2cccc(F)c2Cl)c1O | 0.501 | 355 | 369 | 1.04 | 
CN1CCN(S(=O)(=O)c2c(Cl)ccc(NC(=O)Nc3cccc(F)c3Cl)c2O)CC1 | 0.794 | 176 | 83 | 0.47 | 
CN1CCC2(CC1)CC(S(=O)(=O)c1c(Cl)ccc(NC(=O)Nc3cccc(F)c3Cl)c1O)C2 | 2 | 1390 | 111 | 0.08 | 
C[C@@H]1CN(S(=O)(=O)c2c(Cl)ccc(NC(=O)Nc3cccc(Cl)c3Cl)c2O)C[C@H](C)O1 | 10 | 519 | 73 | 0.14 | 
O=C(Nc1ccc(Cl)c(S(=O)(=O)C2CCC2)c1O)Nc1cccc(F)c1Cl | 0.316 | 103 | 28.4 | 0.28 | 
CN1CC2(CC(S(=O)(=O)c3c(Cl)ccc(NC(=O)Nc4cccc(F)c4Cl)c3O)C2)C1 | 0.398 | 1050 | 22.9 | 0.02 | 
